According to patent US9216173B2, “2-Pyridyl carboxamide-containing spleen tyrosine kinase (SYK) inhibitors” (Merck Sharp & Dohme Corp., priority 2011, dated 2015):

These compounds were tested against T1, recombinant human GST-SYK (Homo sapiens, UniProt P43405) (assay: Homogeneous Time-Resolved Fluorescence (HTRF) assay for the recombinant human Syk enzyme). Conditions: GST-hSYK 5 pM, ATP 25 μM, 10-dose titration 10 μM to 0.508 nM; read-out: IC50.
T1 construct: purchased Carna Biosciences 08-176
Type: biochemical
Protocol: Homogeneous Time-Resolved Fluorescence (HTRF) Assay for the Recombinant Human Syk Enzyme
A recombinant GST-hSYK fusion protein was used to measure potency of compounds to inhibit human Syk activity. […] Final volume of the reaction was 10 μL. Phosphorylation of the peptide was allowed to proceed for 45 minutes at room temperature. To quench the reaction and detect the phosphorylated product, 2 nM of a Europium-anti-phosphotyrosine antibody (Perkin Elmer #AD0161) and 70 nM SA-APC (Perkin-Elmer #CR130-100) were added together in 15 mM Tris pH 7.5, 40 mM EDTA, 0.01% tween 20. Final volume of the quenching solution was 10 μL. The resulting HTRF signal was measured after 30 minutes on an EnVision (Perkin-Elmer) reader using a time-resolved fluorescence protocol.

Row | IC50 | SMILES
1 | 7.8 nM | Cc1cc(C)nc(Nc2cc(N[C@@H](CC(C)C)C(N)=O)cnc2C(N)=O)c1 [Example 1.46, N^2-{6-carbamoyl-5-[(4,6-dimethylpyridin-2-yl)amino]pyridin-3-yl}- -leucinamide]
2 | 1300 nM | Cc1nc(C)c(Cl)c(Nc2cc(N[C@@H]3CCCC[C@@H]3N)cnc2C(N)=O)n1 [Example 1.126, 5-{[(1R,2S)-2-aminocyclohexyl]amino}-3-[(5-chloro-2,6-dimethylpyrimidin-4-yl)amino]pyridine-2-carboxamide]

Same assay, conditions: GST-hSYK 5 pM, ATP 25 μM, 10-dose titration 10 μM to 0.508 nM; read-out: rhSYK Activity (IC50 rating)

Row | IC50 | SMILES
3 | < 10 nM | NC(=O)c1ncc(N[C@@H]2CCCC[C@@H]2N)cc1Nc1ccc2nccn2n1 [Example 1.17, 5-{[(1R,2S)-2-aminocyclohexyl]amino}-3-(imidazo[1,2-b]pyridazin-6-ylamino)pyridine-2-carboxamide]
4 | < 10 nM | Cc1cc(C)nc(Nc2cc(NC(C)CN)cnc2C(N)=O)c1 (stereo not shown) [Example 1.30, 5-[(2-amino-1-methylethyl)amino]-3-[(4,6-dimethylpyridin-2-yl)amino]pyridine-2-carboxamide]
5 | 10 to 100 nM | Cc1cc(C(=O)O)cc(Nc2cc(N[C@@H]3CCCC[C@@H]3N)cnc2C(N)=O)n1 [Example 12, 2-[(5-{[(1R,2S)-2-aminocyclohexyl]amino}-2-carbamoylpyridin-3-yl)amino]-6-methylpyridine-4-carboxylic acid]
6 | 10 to 100 nM | Cc1cc(C)nc(Nc2cc(NC3CC(N)C3)cnc2C(N)=O)c1 (stereo not shown) [Example 2.15, 5-[(3-aminocyclobutyl)amino]-3-[(4,6-dimethylpyridin-2-yl)amino]pyridine-2-carboxamide]
7 | 10 to 100 nM | Cc1cc(C)nc(Nc2cc(NCC3(N)CCOC3)cnc2C(N)=O)c1 (stereo not shown) [Example 1.35, 5-{[(3-aminotetrahydrofuran-3-yl)methyl]amino}-3-[(4,6-dimethylpyridin-2-yl)amino]pyridine-2-carboxamide]
8 | < 10 nM | NC(=O)c1ncc(N[C@@H]2CCCC[C@@H]2N)cc1Nc1cnn(-c2ccccc2)n1 [Example 1.51, 5-{[(1R,2S)-2-aminocyclohexyl]amino}-3-[(2-phenyl-2H-1,2,3-triazol-4-yl)amino]pyridine-2-carboxamide]
9 | 10 to 100 nM | Cc1cc(C(=O)N(C)C)cc(Nc2cc(N[C@@H]3CCCC[C@@H]3N)cnc2C(N)=O)n1 [Example 1.59, 5-{[(1R,2S)-2-aminocyclohexyl]amino}-3-{[4-(dimethylcarbamoyl)-6-methylpyridin-2-yl]amino}pyridine-2-carboxamide]
10 | < 10 nM | Cc1cc(Nc2cc(N[C@@H]3CCCC[C@@H]3N)cnc2C(N)=O)nc(-c2cnc(C(C)(C)O)s2)c1 [Example 1.114, 5-{[(1R,2S)-2-aminocyclohexyl]amino}-3-({6-[2-(1-hydroxy-1-methylethyl)-1,3-thiazol-5-yl]-4-methylpyridin-2-yl}amino)pyridine-2-carboxamide]
11 | < 10 nM | Cc1nc(Nc2cc(N[C@@H]3CCCC[C@@H]3N)cnc2C(N)=O)ccc1-c1ccc(-c2nccn2C)cc1 [Example 3.29, 5-{[(1R,2S)-2-aminocyclohexyl]amino}-3-({6-methyl-5-[4-(1-methyl-1H-imidazol-2-yl)phenyl]pyridin-2-yl}amino)pyridine-2-carboxamide]
12 | < 10 nM | NCCNc1cnc(C(N)=O)c(Nc2cccc(-n3nccn3)n2)c1 [Example 1.58, 5-[(2-aminoethyl)amino]-3-{[6-(2H-1,2,3-triazol-2-yl)pyridin-2-yl]amino}pyridine-2-carboxamide]
13 | 100 to 1000 nM | CCn1cnc(Nc2cc(N[C@@H]3CCCC[C@@H]3N)cnc2C(N)=O)n1 [Example 1.56, 5-{[(1R,2S)-2-aminocyclohexyl]amino}-3-[(1-ethyl-1H-1,2,4-triazol-3-yl)amino]pyridine-2-carboxamide]
14 | 1000 to 10000 nM | Cc1nc(C)c(Cl)c(Nc2cc(N[C@@H]3CCCC[C@@H]3N)cnc2C(N)=O)n1 [Example 1.126, 5-{[(1R,2S)-2-aminocyclohexyl]amino}-3-[(5-chloro-2,6-dimethylpyrimidin-4-yl)amino]pyridine-2-carboxamide]
15 | < 10 nM | COc1cccc(Nc2cc(N[C@@H]3CCCC[C@@H]3N)cnc2C(N)=O)n1 [Example 1.13, 5-{[(1R,2S)-2-aminocyclohexyl]amino}-3-[(6-methoxypyridin-2-yl)amino]pyridine-2-carboxamide]
16 | < 10 nM | NC(=O)c1ncc(N[C@@H]2CCCC[C@@H]2N)cc1Nc1ccnc(-n2nccn2)n1 [Example 1.122, 5-{[(1R,2S)-2-aminocyclohexyl]amino}-3-{[2-(2H-1,2,3-triazol-2-yl)pyrimidin-4-yl]amino}pyridine-2-carboxamide]
17 | < 10 nM | Cc1nc(Nc2cc(N[C@@H]3CCCC[C@@H]3N)cnc2C(N)=O)ccc1-c1ccc2cccnc2c1 [Example 3.27, 5-{[(1R,2S)-2-aminocyclohexyl]amino}-3-[(6-methyl-5-quinolin-7-ylpyridin-2-yl)amino]pyridine-2-carboxamide]
18 | < 10 nM | Cc1nc(Nc2cc(N[C@@H]3CCCC[C@@H]3N)cnc2C(N)=O)ccc1Br [Example 1.31, 5-{[(1R,2S)-2-aminocyclohexyl]amino}-3-[(5-bromo-6-methylpyridin-2-yl)amino]pyridine-2-carboxamide]

Row | IC50 | SMILES
19 | < 10 nM | CCC(CN)Nc1cnc(C(N)=O)c(Nc2ccn(-c3ccc(F)cc3)n2)c1 (stereo not shown) [Example 1.96, 5-{[1-(aminomethyl)propyl]amino}-3-{[1-(4-fluorophenyl)-1H-pyrazol-3-yl]amino}pyridine-2-carboxamide]
20 | < 10 nM | COc1ccc(-c2ccc(Nc3cc(N[C@@H]4CCCC[C@@H]4N)cnc3C(N)=O)nc2C)cc1OC [Example 3.4, 5-{[(1R,2S)-2-aminocyclohexyl]amino}-3-{[5-(3,4-dimethoxyphenyl)-6-methylpyridin-2-yl]amino}pyridine-2-carboxamide]
21 | < 10 nM | Cc1nc(Nc2cc(N[C@@H]3CCCC[C@@H]3N)cnc2C(N)=O)ccc1C(=O)O [Example 16, 6-[(5-{[(1R,2S)-2-aminocyclohexyl]amino}-2-carbamoylpyridin-3-yl)amino]-2-methylpyridine-3-carboxylic acid]
22 | < 10 nM | NC(=O)c1ncc(NCC2(N)CC2)cc1Nc1cccc(C(F)(F)F)n1 [Example 1.103, 5-{[(1-aminocyclopropyl)methyl]amino}-3-{[6-(trifluoromethyl)pyridin-2-yl]amino}pyridine-2-carboxamide]
23 | < 10 nM | Cc1cc(Nc2cc(N[C@@H]3CCCC[C@@H]3N)cnc2C(N)=O)nc(-n2nccn2)c1 [Example 1.102, 5-{[(1R,2S)-2-aminocyclohexyl]amino}-3-{[4-methyl-6-(2H-1,2,3-triazol-2-yl)pyridin-2-yl]amino}pyridine-2-carboxamide]
24 | < 10 nM | CCC(C)(N)CNc1cnc(C(N)=O)c(Nc2cc(C)cc(C)n2)c1 (stereo not shown) [Example 1.117, 5-[(2-amino-2-methylbutyl)amino]-3-[(4,6-dimethylpyridin-2-yl)amino]pyridine-2-carboxamide]
25 | < 10 nM | Cc1nc(Nc2cc(N[C@@H]3CCCC[C@@H]3N)cnc2C(N)=O)ccc1-c1ccc(C)c2ncccc12 [Example 3.32, 5-{[(1R,2S)-2-aminocyclohexyl]amino}-3-{[6-methyl-5-(8-methylquinolin-5-yl)pyridin-2-yl]amino}pyridine-2-carboxamide]
26 | < 10 nM | Cc1cc(N2CCOCC2)cc(Nc2cc(N[C@@H]3CCCC[C@@H]3N)cnc2C(N)=O)n1 [Example 1.77, 5-{[(1R,2S)-2-aminocyclohexyl]amino}-3-[(6-methyl-4-morpholin-4-ylpyridin-2-yl)amino]pyridine-2-carboxamide]
27 | < 10 nM | Cc1cc(C)nc(Nc2cc(N[C@@H]3CCC[C@@H]3N)cnc2C(N)=O)c1 (relative stereo) [Example 1.18, rel-5-{[(1R,2S)-2-aminocyclopentyl]amino}-3-[(4,6-dimethylpyridin-2-yl)amino]pyridine-2-carboxamide]
28 | < 10 nM | Cc1cc(C)nc(Nc2cc(NC(CN)c3ccccc3)cnc2C(N)=O)c1 (stereo not shown) [Example 1.21, 5-[(2-amino-1-phenylethyl)amino]-3-[(4,6-dimethylpyridin-2-yl)amino]pyridine-2-carboxamide]
29 | < 10 nM | Cc1nc(Nc2cc(N[C@@H]3CCCC[C@@H]3N)cnc2C(N)=O)ccc1-c1cccc2c1CNC2=O [Example 3.12, 5-{[(1R,2S)-2-aminocyclohexyl]amino}-3-{[6-methyl-5-(1-oxo-2,3-dihydro-1H-isoindol-4-yl)pyridin-2-yl]amino}pyridine-2-carboxamide]
30 | < 10 nM | CC(C)c1cccc(Nc2cc(N[C@@H]3CCCC[C@@H]3N)cnc2C(N)=O)n1 [Example 1.54, 5-{[(1R,2S)-2-aminocyclohexyl]amino}-3-{[6-(1-methylethyl)pyridin-2-yl]amino}pyridine-2-carboxamide]
31 | < 10 nM | NC(=O)c1ncc(N[C@@H]2CCCC[C@@H]2N)cc1Nc1cccc(-c2ccc3c(c2)CCO3)n1 [Example 1.15, 5-{[(1R,2S)-2-aminocyclohexyl]amino}-3-{[6-(2,3-dihydro-1-benzofuran-5-yl)pyridin-2-yl]amino}pyridine-2-carboxamide]
32 | < 10 nM | Cc1cc(-c2ccccc2)cc(Nc2cc(N[C@@H]3CCCC[C@@H]3N)cnc2C(N)=O)n1 [Example 4.1, 5-{[(1R,2S)-2-aminocyclohexyl]amino}-3-[(6-methyl-4-phenylpyridin-2-yl)amino]pyridine-2-carboxamide]
33 | < 10 nM | Cc1nc(Nc2cc(N[C@@H]3CCCC[C@@H]3N)cnc2C(N)=O)ccc1-c1ccc(C(=O)O)cc1 [Example 3.5, 4-{6-[(5-{[(1R,2S)-2-aminocyclohexyl]amino}-2-carbamoylpyridin-3-yl)amino]-2-methylpyridin-3-yl}benzoic acid]
34 | < 10 nM | Cc1nc(Cl)cc(Nc2cc(N[C@@H]3CCCC[C@@H]3N)cnc2C(N)=O)n1 [Example 1.127, 5-{[(1R,2S)-2-aminocyclohexyl]amino}-3-[(6-chloro-2-methylpyrimidin-4-yl)amino]pyridine-2-carboxamide]
